Data as given in patent US11767322B2 (BRISTOL-MYERS SQUIBB COMPANY, priority 2020, dated 2023).
pIC50: −log10 of the molar value. Read-outs that look alike come from different tables or passages of the source.

Key:
[1] = test system: MLKL phosphorylation in HT29-L23 human colorectal adenocarcinoma cells; assay: MLKL phosphorylation high-content assay; type: cell-based
[2] = biological target: T1, His-GST-TVMV-hRIPK1(1-324) (Homo sapiens, UniProt Q13546); assay: biochemical; type: binding
T1 construct: The coding region of human RIPK1(1-324) flanked by NdeI site at 5′ end; made in house; host or cells: Spodoptera frugiperda Sf9 insect cells (baculovirus, Bac-to-Bac)
T1 sequence (Q13546 1-324): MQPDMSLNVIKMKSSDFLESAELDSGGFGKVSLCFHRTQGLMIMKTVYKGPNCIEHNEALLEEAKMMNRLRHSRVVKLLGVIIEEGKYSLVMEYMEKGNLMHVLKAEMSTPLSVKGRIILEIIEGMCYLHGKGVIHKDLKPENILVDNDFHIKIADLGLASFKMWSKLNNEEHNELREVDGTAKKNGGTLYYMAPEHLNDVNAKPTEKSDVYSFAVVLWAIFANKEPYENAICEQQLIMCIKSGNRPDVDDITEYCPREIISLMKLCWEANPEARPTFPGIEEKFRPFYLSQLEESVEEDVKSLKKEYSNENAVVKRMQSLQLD

[3] = read-out: pMLKL IC50, HT29-L23 cells, necroptosis induced with TNFα, SMAC mimetic and Z-VAD, 6 h, maximal inhibition defined by Nec1s
[4] = HTRF probe displacement, 1 h at rt, read-out: RIPK1 IC50
[5] = Homo sapiens, 6 h, read-out: pMLKL IC50, HT29-L23 cells, necroptosis induced with TNFα, SMAC mimetic and Z-VAD, 6 h, maximal inhibition defined by Nec1s
[6] = Table 22, compounds of the present invention, read-out: RPIK1 IC50

SMILES	pIC50 [2, 4]	pIC50 [1, 5]	also measured
Nc1nc2cc(-c3ccc(Cl)c(C(=O)NCC(F)(F)C(O)c4ccc(Cl)cc4F)c3F)ccn2n1 (single isomer, unassigned) [Example 163, 3-(2-amino-[1,2,4]triazolo[1,5-a]pyridin-7-yl)-6-chloro-N-(3-(4-chloro-2-fluorophenyl)-2,2-difluoro-3-hydroxypropyl)-2-fluorobenzamide]	9.52		pIC50 [1, 3]: 8.89
Cc1ccc(-c2ccn3nc(N)nc3c2C)c(F)c1C(=O)NCC[C@H](O)c1ccc(Cl)cc1 (single isomer, unassigned; enantiomer 1) [Example 137]	8.01		pIC50 ([1]; HT29-L23 cells, necroptosis induced with TNFα, SMAC mimetic and Z-VAD, 6 h, maximal inhibition defined by Nec1s, read-out: pMLKL IC50): 9.05
[2H]C([2H])([2H])c1ccc(-c2ccn3nc(N)nc3c2)c(F)c1C(=O)NCC(F)(F)C(C)(O)c1ccc(F)cc1 (single isomer, unassigned) [Example 242, 3-(2-amino-[1,2,4]triazolo[1,5-a]pyridin-7-yl)-N-(2,2-difluoro-3-(4-fluorophenyl)-3-hydroxybutyl)-2-fluoro-6-(methyl-d3)benzamide]	8.04		pIC50 [1, 3]: 9.00
[2H]C([2H])([2H])c1ccc(-c2ccn3nc(N)nc3c2)c(F)c1C(=O)NCC1(C([2H])(O)c2ccc(F)cc2)CC1 (single isomer, unassigned) [Example 309, 3-(2-amino-[1,2,4]triazolo[1,5-a]pyridin-7-yl)-2-fluoro-N-((1-((4-fluorophenyl) (hydroxy)methyl-d)cyclopropyl)methyl)-6-(methyl-d3)benzamide]	8.21	7.96	
[2H]C([2H])([2H])C(O)(c1ccc(F)cc1)C(F)CNC(=O)c1c(C(F)F)ccc(-c2ccn3nc(N)nc3c2)c1F (single isomer, unassigned) [Example 195, 3-(2-amino-[1,2,4]triazolo[1,5-a]pyridin-7-yl)-6-(difluoromethyl)-2-fluoro-N-(2-fluoro-3-(4-fluorophenyl)-3-hydroxybutyl-4,4,4-d3)benzamide]	8.08	9.00	
Cc1ccc(-c2ccn3nc(N)nc3c2)c(F)c1C(=O)NCCC(O)c1ccc(F)cc1 (stereo not shown) [Example 49, 3-(2-amino-[1,2,4]triazolo[1,5-a]pyridin-7-yl)-2-fluoro-N-(3-(4-fluorophenyl)-3-hydroxypropyl)-6-methylbenzamide]	8.60	8.59	pIC50 ([1]; Homo sapiens, read-out: pMLKL IC50, Table 22, compounds of the present invention): 8.59; pIC50 [2, 6]: 8.60
Cc1ccc(-c2ccn3nc(N)nc3c2)c(F)c1C(=O)NCCC(O)c1cccc(Cl)c1 (single isomer, unassigned) [Example 44, 3-(2-amino-[1,2,4]triazolo[1,5-a]pyridin-7-yl)-N-(3-(3-chlorophenyl)-3-hydroxypropyl)-2-fluoro-6-methylbenzamide]	8.89		pIC50 [1, 3]: 8.60
Cc1nc(C)c(-c2ccn3nc(N)nc3c2)cc1C(=O)NCC(O)Cc1ccccc1 (stereo not shown) [Example 174]			pIC50 ([1]; Homo sapiens, Table 23, representative compounds from WO2018/148626, read-out: pMLKL IC50): 6.69; pIC50 ([2]; Table 23, representative compounds from WO2018/148626, read-out: RIPK1 IC50): 7.32
CCc1cc(F)c(-c2ccn3nc(N)nc3c2)cc1C(=O)NCC[C@H](O)c1ccc(Cl)cc1 [Example 157]	8.51	8.17	
Cc1ccc(-c2ccn3nc(N)nc3c2C)c(F)c1C(=O)NCC[C@H](O)c1ccc(Cl)cc1 [compound 134]	8.54	8.82	
Cc1ccc(-c2ccn3nc(N)nc3c2)c(F)c1C(=O)NCC(F)(F)C1(c2ccc(F)cc2)COC1 [Example 246, 3-(2-amino-[1,2,4]triazolo[1,5-a]pyridin-7-yl)-N-(2,2-difluoro-2-(3-(4-fluorophenyl)oxetan-3-yl)ethyl)-2-fluoro-6-methylbenzamide]	7.82	8.66	
Nc1nc2cc(-c3ccc(Cl)c(C(=O)NCCC(O)c4ccc(F)cc4)c3F)ccn2n1 (single isomer, unassigned) [Example 80, 3-(2-amino-[1,2,4]triazolo[1,5-a]pyridin-7-yl)-6-chloro-2-fluoro-N-(3-(4-fluorophenyl)-3-hydroxypropyl)benzamide]	8.05	7.57	
Cc1ccc(-c2ccn3nc(N)nc3c2)c(F)c1C(=O)NCC(O)C(F)(F)c1ccc(F)cc1 (single isomer, unassigned) [Example 291, 3-(2-amino-[1,2,4]triazolo[1,5-a]pyridin-7-yl)-N-(3,3-difluoro-3-(4-fluorophenyl)-2-hydroxypropyl)-2-fluoro-6-methylbenzamide]	9.00		pIC50 [1, 3]: 8.62; pIC50 ([1]; read-out: pMLKL IC50, Table 22, compounds of the present invention): 8.62; pIC50 [2, 6]: 9.00
[2H]C([2H])([2H])c1ccc(-c2ccn3nc(N)nc3c2)c(F)c1C(=O)NC[C@H](F)[C@](C)(O)c1ccc(F)cc1 [Example 215, 3-(2-amino-[1,2,4]triazolo[1,5-a]pyridin-7-yl)-2-fluoro-N-((1S,3R)-2-fluoro-3-(4-fluorophenyl)-3-hydroxybutyl)-6-(methyl-d3)benzamide]	8.06	8.18	
Cc1ccc(C(O)C(F)(F)CNC(=O)c2c(Cl)ccc(-c3ccn4nc(N)nc4c3)c2F)cc1 (stereo not shown) [Example 173, 3-(2-amino-[1,2,4]triazolo[1,5-a]pyridin-7-yl)-6-chloro-N-(2,2-difluoro-3-hydroxy-3-(p-tolyl)propyl)-2-fluorobenzamide]	9.05	9.05	
Nc1nc2cc(-c3ccc(Cl)c(C(=O)NCCC(O)c4ccc(C(F)(F)F)cc4)c3F)ccn2n1 (single isomer, unassigned) [Example 85, 3-(2-amino-[1,2,4]triazolo[1,5-a]pyridin-7-yl)-6-chloro-2-fluoro-N-(3-hydroxy-3-(4-(trifluoromethyl)phenyl)propyl)benzamide]	8.68		pIC50 [1, 3]: 9.30
CC(O)(c1ccc(F)cc1)C(F)(F)CNC(=O)c1c(Cl)ccc(-c2ccn3nc(N)nc3c2)c1F (single isomer, unassigned) [Example 88, 3-(2-amino-[1,2,4]triazolo[1,5-a]pyridin-7-yl)-6-chloro-N-(2,2-difluoro-3-(4-fluorophenyl)-3-hydroxybutyl)-2-fluorobenzamide]	8.44	8.62	
[2H]C(O)(c1ccc(C(F)F)cc1)C(F)(F)CNC(=O)c1c(Cl)ccc(-c2ccn3nc(N)nc3c2)c1F (single isomer, unassigned) [Example 312, 3-(2-amino-[1,2,4]triazolo[1,5-a]pyridin-7-yl)-6-chloro-N-(3-(4-(difluoromethyl)phenyl)-2,2-difluoro-3-hydroxypropyl-3-d)-2-fluorobenzamide]	8.24		pIC50 [1, 3]: 9.05
Cc1ccc(-c2ccn3nc(N)nc3c2)c(F)c1C(=O)NCCC(O)c1ccc(C(F)(F)F)cc1 (stereo not shown) [Example 55, 3-(2-amino-[1,2,4]triazolo[1,5-a]pyridin-7-yl)-2-fluoro-N-(3-hydroxy-3-(4-(trifluoromethyl)phenyl)propyl)-6-methylbenzamide]	9.52	9.05	
Nc1nc2cc(-c3ccc(C(F)(F)F)c(C(=O)NCC(F)(F)[C@@H](O)c4ccc(F)cc4)c3F)ccn2n1 [Example 315, (S)-3-(2-amino-[1,2,4]triazolo[1,5-a]pyridin-7-yl)-N-(2,2-difluoro-3-(4-fluorophenyl)-3-hydroxypropyl)-2-fluoro-6-(trifluoromethyl)benzamide]	8.16	9.40	
Nc1nc2cc(-c3ccc(Cl)c(C(=O)NCCC(O)c4ccc(F)cc4)c3F)ccn2n1 (single isomer, unassigned) [Example 79, 3-(2-amino-[1,2,4]triazolo[1,5-a]pyridin-7-yl)-6-chloro-2-fluoro-N-(3-(4-fluorophenyl)-3-hydroxypropyl)benzamide]	8.32	7.72	
